The assay deals with B8CYA8 (β-glucosidase from Halothermothrix orenii) (Halothermothrix orenii, UniProt B8CYA8). Put plainly: melting temperature shift. Type of assay: binding. The conditions noted are these: 0.5 M glucose.
Sequence of B8CYA8 (β-glucosidase from Halothermothrix orenii) (B8CYA8 1-451): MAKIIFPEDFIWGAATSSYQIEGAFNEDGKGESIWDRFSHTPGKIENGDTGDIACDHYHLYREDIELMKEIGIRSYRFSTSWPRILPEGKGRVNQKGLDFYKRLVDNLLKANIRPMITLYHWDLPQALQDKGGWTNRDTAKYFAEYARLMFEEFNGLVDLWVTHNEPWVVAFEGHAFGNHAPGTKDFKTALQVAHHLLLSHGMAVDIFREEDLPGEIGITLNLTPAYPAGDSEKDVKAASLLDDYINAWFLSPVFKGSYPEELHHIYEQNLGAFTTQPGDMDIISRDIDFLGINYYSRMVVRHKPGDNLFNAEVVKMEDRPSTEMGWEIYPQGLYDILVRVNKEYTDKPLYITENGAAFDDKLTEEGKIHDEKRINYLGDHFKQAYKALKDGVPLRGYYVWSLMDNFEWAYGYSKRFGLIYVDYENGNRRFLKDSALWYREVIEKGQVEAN

In the case of `OC[C@H]1OC(O)[C@H](O)[C@@H](O)[C@@H]1O` (stereo partly shown) [glucose], the “increase in melting temperature” value is 4-5 °C.

Source of the values: doi:10.1101/844506v1 (biorxiv, 2019).
